From patent US9006487B2, “Amine-containing lipids and uses thereof” (Massachusetts Institute of Technology, priority 2005, dated 2015)
“And” between values parts separate entries of the source, which are not always exact repeats. Equal values may be shown once.

Tested on: cos-7 cells
Assay: DNA transfection: luciferase expression relative to Lipofectamine 2000
Type: cell-based
Conditions: for Luciferase expression as a percentage of that achieved using Lipofectamine 2000: 300 ng Luciferase DNA per well; for luciferase expression (second part of table, values relative to LIPO2000): 300 ng of DNA per well
In short: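 Lipid/DNA complexes, 300 ng luciferase DNA per well at 2.5-25 w/w lipid:DNA, were formed in sodium acetate/Optimem and added to overnight-seeded cos-7 cells. Luciferase was measured by Bright-Glo luminescence after 48 hours and quantified against an enzyme standard curve. Values are expressed as % of Lipofectamine 2000 at 2.5 w/w.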

[1] = lipid/DNA 2.5 w/w, luciferase assay after 48 hours
[2] = lipid/DNA 5 w/w, luciferase assay after 48 hours
[3] = lipid/DNA 10 w/w, luciferase assay after 48 hours
[4] = lipid/DNA 15 w/w, luciferase assay after 48 hours
[5] = lipid/DNA 20 w/w, luciferase assay after 48 hours
[6] = lipid/DNA 25 w/w, luciferase assay after 48 hours

Structure (SMILES)	Luciferase expression as a percentage of that achieved using Lipofectamine 2000 [1]	Luciferase expression as a percentage of that achieved using Lipofectamine 2000 [2]	Luciferase expression as a percentage of that achieved using Lipofectamine 2000 [3]	Luciferase expression as a percentage of that achieved using Lipofectamine 2000 [4]	Luciferase expression as a percentage of that achieved using Lipofectamine 2000 [5]	Luciferase expression as a percentage of that achieved using Lipofectamine 2000 [6]	further results
CCCCCCCCCCCCCCCOC(=O)CCN(CCCN(CC)CC)CCC(=O)OCCCCCCCCCCCCCCC [LG81]	0.7%	0.8%	1.2%	4.1%	14.8%	19.9%	–
CCCCCCCCCCCCCCOC(=O)CCN(CCC(=O)OCCCCCCCCCCCCCC)CCN(CCC(=O)OCCCCCCCCCCCCCC)CCC(=O)OCCCCCCCCCCCCCC [LF99]	32.2%	49.8%	26.5%	10.7%	6.0%	6.2%	luciferase expression (second part of table, values relative to LIPO2000) (lipid/DNA 2.5 w/w): 32.2; luciferase expression (second part of table, values relative to LIPO2000) (lipid/DNA 5 w/w): 49.8; luciferase expression (second part of table, values relative to LIPO2000) (lipid/DNA 10 w/w): 26.5; luciferase expression (second part of table, values relative to LIPO2000) (lipid/DNA 15 w/w): 10.7; luciferase expression (second part of table, values relative to LIPO2000) (lipid/DNA 20 w/w): 6.0; luciferase expression (second part of table, values relative to LIPO2000) (lipid/DNA 25 w/w): 6.2
CCCCCCCCCCCCCCCOC(=O)CCN(CCOC)CCC(=O)OCCCCCCCCCCCCCCC [LG10]	0.0%	0.0%	0.0%	0.0%	0.0%	0.0%	–
CCCCCCCCCCCCCOC(=O)CCN(CCC(=O)OCCCCCCCCCCCCC)CCN1CCOCC1 [LE90]	0.5%	0.3%	0.4%	0.4%	0.4%	0.4%	–
CCCCCCCCCCCCCCOC(=O)CCN1CCCN(CCC(=O)OCCCCCCCCCCCCCC)CC1 [LF70]	0.1%	0.1%	0.2%	0.3%	0.2%	0.3%	–
CCCCCCCCCCCCOC(=O)CC[N+](C)(CCC(=O)OCCCCCCCCCCCC)CC[N+](C)(CCO)CCO.[I-].[I-] [QD86]	–	–	2.0%	2.0%	–	–	–
CCCCCCCCCCOC(=O)CCN(CCOCC)CCC(=O)OCCCCCCCCCC [LB11]	0.1%	0.1%	0.1%	0.1%	0.1%	0.1%	–
CCCCCCCCCCCCCCOC(=O)CCN(CCC(=O)OCCCCCCCCCCCCCC)CC(C)(C)CO [LF33]	0.1%	0.1%	0.1%	0.1%	0.1%	0.1%	–
CCCCCCCCCCCCCCOC(=O)CCN(C)CCN(C)CCC(=O)OCCCCCCCCCCCCCC [LF60]	0.4%	0.4%	0.5%	0.5%	0.5%	0.5%	–
CCCCCCCCCCCCCCCCCCOC(=O)CCN(CCCCO)CCC(=O)OCCCCCCCCCCCCCCCCCC [LH28]	–	–	0.2%	0.2%	–	–	–
CCCCCCCCCCCCCCCOC(=O)CCN(CCC(=O)OCCCCCCCCCCCCCCC)CCN1CCCCC1 [LG82]	0.2%	0.2%	0.6%	0.8%	0.5%	1.2%	–
CCCCCCCCCCCCCCOC(=O)CC[N+](C)(CCC(=O)OCCCCCCCCCCCCCC)CCC1CCC[N+]1(C)C.[I-].[I-] (centres unmarked) [QF77]	0.4%	0.4%	0.7%	1.3%	2.7%	9.9%	–
CCCCCCCCCCCCCCCCCCOC(=O)CCN(CCC(=O)OCCCCCCCCCCCCCCCCCC)C[C@@H](C)O [LH21]	0.0%	0.0%	0.0%	0.0%	0.0%	0.0%	–
CCCCCCCCCCCCCCOC(=O)CC[N+](C)(CCC(=O)OCCCCCCCCCCCCCC)CCC1OCCO1.[I-] [QF6]	0.0%	0.0%	0.0%	0.0%	0.0%	0.0%	–
CCCCCCCCCCOC(=O)CCN1CCCN(CCC(=O)OCCCCCCCCCC)CC1 [LB70]	0.1%	0.1%	0.1%	0.1%	0.1%	0.1%	–
CCCCCCCCCCCCOC(=O)CCN(CCCN1CCOCC1)CCC(=O)OCCCCCCCCCCCC [LD91]	0.2%	0.2%	0.2%	0.2%	0.2%	0.2%	–
CCCCCCCCCCCCCCCOC(=O)CCN(CC)CCCN(CC)CCC(=O)OCCCCCCCCCCCCCCC [LG64]	0.0% and 0.2%	0.0% and 0.1%	0.0% and 0.1%	0.0% and 0.1%	0.0% and 0.1%	0.0% and 0.2%	Luciferase expression as a percentage of that achieved using Lipofectamine 2000 (lipid/DNA 2.5 w/w, 72 hours incubation before bright-glo): 0.3%; Luciferase expression as a percentage of that achieved using Lipofectamine 2000 (lipid/DNA 5 w/w, 72 hours incubation before bright-glo): 0.3%; Luciferase expression as a percentage of that achieved using Lipofectamine 2000 (lipid/DNA 10 w/w, 72 hours incubation before bright-glo): 1.8%; Luciferase expression as a percentage of that achieved using Lipofectamine 2000 (lipid/DNA 15 w/w, 72 hours incubation before bright-glo): 1.8%; Luciferase expression as a percentage of that achieved using Lipofectamine 2000 (lipid/DNA 20 w/w, 72 hours incubation before bright-glo): 1.2%; Luciferase expression as a percentage of that achieved using Lipofectamine 2000 (lipid/DNA 25 w/w, 72 hours incubation before bright-glo): 1.6%
CCCCCCCCCCCCCCCCCCOC(=O)CCN(CCC(=O)OCCCCCCCCCCCCCCCCCC)CC1COC(C)(C)O1 (centres unmarked) [LH7]	0.0%	0.0%	0.0%	0.0%	0.0%	0.0%	–
CCCCCCCCCCCCOC(=O)CCN(CCCN(CCO)CCO)CCC(=O)OCCCCCCCCCCCC [LD87]	–	–	53.9%	43.3%	–	–	luciferase expression (second part of table, values relative to LIPO2000) (lipid/DNA 10 w/w): 53.9; luciferase expression (second part of table, values relative to LIPO2000) (lipid/DNA 15 w/w): 43.3
